ChEMBL document CHEMBL1133640, “Structure-activity studies including a Psi(CH(2)-NH) scan of peptide YY (PYY) active site, PYY(22-36), for interaction with rat intestinal PYY receptors: development of analogues with potent in vivo activity in the intestine” (J Med Chem, 2000)
*1 amine or outer side, *2 acyl side, *3 side chain or, on linkers, in order; H or OH if unused. Where a SMILES comes first, the peptide text is derived from it. Side-chain parts run from the residue outwards. [ ]: non-standard residue; d: D form. The star is where a group is joined. X1 = C[C@@H](O)[C@@H](CN[C@@H](CCCN=C(N)N)C(=O)N[C@@H](CCC(N)=O)C(=O)N[C@@H](CCCN=C(N)N)C(=O)N[C@@H](Cc1ccc(O)cc1)C(N)=O)N*; X2 = N=C(N)NCCC[C@@H](CN[C@@H](CCC(N)=O)C(=O)N[C@@H](CCCNC(=N)N)C(=O)N[C@@H](Cc1ccc(O)cc1)C(N)=O)N*; Argψ(CH2NH)TyrNH2 = N=C(N)NCCC[C@@H](CN[C@@H](Cc1ccc(O)cc1)C(N)=O)N*; X3 = CC(C)C[C@@H](CN([C@@H](CCCNC(=N)N)C(=O)[*:2])[*:1])N[*:3]; Dip = N[C@H](C(=O)O)C(c1ccccc1)c1ccccc1; 1Nal = N[C@@H](Cc1cccc2ccccc12)C(=O)O; Tic = O=C(O)[C@@H]1Cc2ccccc2CN1

Tests used:
[1] = biological target: Neuropeptide Y receptor type 1 (Homo sapiens, UniProt P25929); assay: Affinity against Neuropeptide Y receptor Y1 in SK-N-MC cell line; assay type: cell-based
[2] = biological target: Neuropeptide Y receptor type 2 (Rattus norvegicus, UniProt Q9ERC0); assay: Antisecretory potency, affinity for intestinal PYY of rat jejunum by using short circuit current (SCC) method.; assay type: tissue-based
[3] = biological target: T1, Neuropeptide Y receptor type 2 (Homo sapiens, UniProt P49146); assay: Affinity against Neuropeptide Y receptor Y2 in SK-N-BE2 cell line
T1 sequence (P49146 whole entry): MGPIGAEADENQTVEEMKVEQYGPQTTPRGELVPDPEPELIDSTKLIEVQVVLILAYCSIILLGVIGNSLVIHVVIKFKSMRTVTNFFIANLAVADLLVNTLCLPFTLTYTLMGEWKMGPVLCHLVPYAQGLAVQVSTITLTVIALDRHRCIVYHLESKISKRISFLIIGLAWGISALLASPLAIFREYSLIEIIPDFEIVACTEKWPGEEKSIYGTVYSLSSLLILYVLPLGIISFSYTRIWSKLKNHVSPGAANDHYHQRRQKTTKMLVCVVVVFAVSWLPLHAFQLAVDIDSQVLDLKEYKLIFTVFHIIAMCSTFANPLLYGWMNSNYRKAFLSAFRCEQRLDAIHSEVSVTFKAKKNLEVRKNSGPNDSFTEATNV

Sequence of Neuropeptide Y receptor type 2 (Rattus norvegicus, UniProt Q9ERC0) (Q9ERC0 whole entry): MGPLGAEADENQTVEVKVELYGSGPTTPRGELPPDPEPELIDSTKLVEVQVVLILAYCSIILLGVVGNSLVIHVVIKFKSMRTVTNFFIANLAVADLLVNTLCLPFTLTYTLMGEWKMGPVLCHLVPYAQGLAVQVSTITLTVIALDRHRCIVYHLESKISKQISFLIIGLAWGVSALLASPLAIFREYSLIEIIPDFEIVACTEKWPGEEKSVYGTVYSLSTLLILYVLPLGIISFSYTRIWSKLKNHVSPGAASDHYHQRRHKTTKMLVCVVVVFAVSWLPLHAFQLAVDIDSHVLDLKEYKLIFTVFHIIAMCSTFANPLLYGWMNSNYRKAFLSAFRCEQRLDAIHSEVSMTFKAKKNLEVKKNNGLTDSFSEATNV
Sequence of Neuropeptide Y receptor type 1 (P25929 whole entry): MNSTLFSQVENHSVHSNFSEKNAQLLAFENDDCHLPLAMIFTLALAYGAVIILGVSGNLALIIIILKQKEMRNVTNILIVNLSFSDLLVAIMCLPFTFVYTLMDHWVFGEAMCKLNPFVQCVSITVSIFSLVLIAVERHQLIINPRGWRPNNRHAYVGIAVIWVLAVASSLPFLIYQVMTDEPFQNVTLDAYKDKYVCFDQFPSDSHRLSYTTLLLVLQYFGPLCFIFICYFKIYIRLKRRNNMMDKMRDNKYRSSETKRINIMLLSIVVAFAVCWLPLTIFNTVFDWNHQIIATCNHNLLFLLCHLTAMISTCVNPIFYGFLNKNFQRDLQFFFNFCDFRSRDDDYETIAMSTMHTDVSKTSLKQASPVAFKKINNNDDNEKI

Compound | IC50 [1] [nM] | IC50 [2] [nM] | IC50 [3] [nM]
CC(=O)N[C@@H](C)C(=O)N[C@@H](CO)C(=O)N[C@@H](CC(C)C)C(=O)N[C@@H](CCCNC(=N)N)C(=O)N[C@@H](Cc1cnc[nH]1)C(=O)N[C@@H](Cc1ccc(O)cc1)C(=O)N[C@@H](CC(C)C)C(=O)N[C@@H](CC(N)=O)C(=O)N[C@@H](CC(C)C)C(=O)N[C@H](C(=O)N[C@H](C(=O)N[C@@H](CCCNC(=N)N)CN[C@@H](CCC(N)=O)C(=O)N[C@@H](CCCNC(=N)N)C(=O)N[C@@H](Cc1ccc(O)cc1)C(N)=O)[C@@H](C)O)C(C)C (Ac-ASLRHYLNLVT-X2) | 1250 | > 100 | > 10000
CC(=O)N[C@@H](C)C(=O)N[C@@H](CO)C(=O)N[C@@H](CC(C)C)C(=O)N[C@@H](CCCN=C(N)N)C(=O)N[C@@H](Cc1c[nH]cn1)C(=O)N[C@H](CN[C@@H](CC(C)C)C(=O)N[C@@H](CC(N)=O)C(=O)N[C@@H](CC(C)C)C(=O)N[C@H](C(=O)N[C@H](C(=O)N[C@@H](CCCN=C(N)N)C(=O)N[C@@H](CCC(N)=O)C(=O)N[C@@H](CCCN=C(N)N)C(=O)N[C@@H](Cc1ccc(O)cc1)C(N)=O)[C@@H](C)O)C(C)C)Cc1ccc(O)cc1 | 1270 | > 100 | 864
CCCC[C@H](NC(=O)[C@H](CO)NC(=O)[C@H](C)NC(C)=O)C(=O)N[C@@H](CCCN=C(N)N)C(=O)N[C@@H](Cc1c[nH]cn1)C(=O)N[C@@H](Cc1ccc(O)cc1)C(=O)N[C@@H](CCCC)C(=O)N[C@@H](CC(N)=O)C(=O)N[C@@H](CCCC)C(=O)N[C@@H](CCC)C(=O)N[C@H](C(=O)N[C@@H](CCCN=C(N)N)C(=O)N[C@@H](CCC(N)=O)C(=O)N[C@@H](CCCN=C(N)N)C(=O)N[C@@H](Cc1ccc(O)cc1)C(N)=O)[C@@H](C)O | 1590 | 0.59 | 57
CCCC[C@H](NC(=O)[C@H](CO)NC(=O)[C@H](C)NC(C)=O)C(=O)N[C@@H](CCCNC(=N)N)C(=O)N[C@@H](Cc1cnc[nH]1)C(=O)N[C@@H](Cc1ccc(O)cc1)C(=O)N[C@@H](CCCC)C(=O)N[C@@H](CC(N)=O)C(=O)N[C@@H](Cc1c[nH]c2ccccc12)C(=O)N[C@@H](CCC)C(=O)N[C@H](C(=O)N[C@@H](CCCNC(=N)N)C(=O)N[C@@H](CCC(N)=O)C(=O)N[C@@H](CCCNC(=N)N)C(=O)N[C@@H](Cc1ccc(O)cc1)C(N)=O)[C@@H](C)O | 183 | 0.56 | 3.73
CC(=O)N[C@@H](C)C(=O)N[C@@H](CO)C(=O)N[C@@H](CC(C)C)C(=O)N[C@@H](CCCN=C(N)N)C(=O)N[C@@H](Cc1c[nH]cn1)C(=O)N[C@@H](Cc1ccc(O)cc1)C(=O)N[C@@H](CC(C)C)C(=O)N[C@@H](CC(N)=O)C(=O)N[C@H](Cc1c[nH]c2ccccc12)C(=O)N[C@H](C(=O)N[C@H](C(=O)N[C@@H](CCCN=C(N)N)C(=O)N[C@@H](CCC(N)=O)C(=O)N[C@@H](CCCN=C(N)N)C(=O)N[C@@H](Cc1ccc(O)cc1)C(N)=O)[C@@H](C)O)C(C)C | 47.9 | > 100 | 56.5
CC(=O)N[C@@H](C)C(=O)N[C@@H](CO)C(=O)N[C@H](CN[C@@H](CCCNC(=N)N)C(=O)N[C@@H](Cc1cnc[nH]1)C(=O)N[C@@H](Cc1ccc(O)cc1)C(=O)N[C@@H](CC(C)C)C(=O)N[C@@H](CC(N)=O)C(=O)N[C@@H](CC(C)C)C(=O)N[C@H](C(=O)N[C@H](C(=O)N[C@@H](CCCNC(=N)N)C(=O)N[C@@H](CCC(N)=O)C(=O)N[C@@H](CCCNC(=N)N)C(=O)N[C@@H](Cc1ccc(O)cc1)C(N)=O)[C@@H](C)O)C(C)C)CC(C)C (H-[X3]([Ser-Ala-Ac])HYLNLVTRQRY-NH2) | 735 | 2.76 | 59
CC(=O)N[C@@H](C)C(=O)N[C@@H](CO)C(=O)N[C@@H](CC(C)C)C(=O)N[C@@H](CCCN=C(N)N)C(=O)N[C@@H](Cc1c[nH]cn1)C(=O)N[C@@H](Cc1ccc(O)cc1)C(=O)N[C@@H](CC(C)C)C(=O)N[C@@H](CC(N)=O)C(=O)N[C@H](CN[C@H](C(=O)N[C@H](C(=O)N[C@@H](CCCN=C(N)N)C(=O)N[C@@H](CCC(N)=O)C(=O)N[C@@H](CCCN=C(N)N)C(=O)N[C@@H](Cc1ccc(O)cc1)C(N)=O)[C@@H](C)O)C(C)C)CC(C)C | 769 | > 100 | > 3000
CC(=O)N[C@@H](C)C(=O)N[C@@H](CO)C(=O)N[C@@H](CC(C)C)C(=O)N[C@@H](CCCNC(=N)N)C(=O)N[C@@H](Cc1cnc[nH]1)C(=O)N1Cc2ccccc2C[C@H]1C(=O)N[C@@H](CC(C)C)C(=O)N[C@@H](CC(N)=O)C(=O)N[C@@H](CC(C)C)C(=O)N[C@H](C(=O)N[C@H](C(=O)N[C@@H](CCCNC(=N)N)C(=O)N[C@@H](CCC(N)=O)C(=O)N[C@@H](CCCNC(=N)N)C(=O)N[C@@H](Cc1ccc(O)cc1)C(N)=O)[C@@H](C)O)C(C)C (Ac-ASLRH[Tic]LNLVTRQRY-NH2) | – | 3.4 | 186

Further compounds by falling IC50 [3], results first:

IC50 [1] [nM] | IC50 [2] [nM] | IC50 [3] [nM] | Compound
1090 | 5.03 | 52 | CC(=O)N[C@@H](C)C(=O)N[C@@H](CO)C(=O)N[C@@H](CC(C)C)C(=O)N[C@@H](CCCN=C(N)N)C(=O)N[C@@H](Cc1c[nH]cn1)C(=O)N[C@@H](Cc1ccc(O)cc1)C(=O)N[C@@H](CC(C)C)C(=O)N[C@@H](CC(N)=O)C(=O)N[C@@H](CC(C)C)C(=O)N[C@H](C(=O)N[C@H](CN[C@@H](CCCN=C(N)N)C(=O)N[C@@H](CCC(N)=O)C(=O)N[C@@H](CCCN=C(N)N)C(=O)N[C@@H](Cc1ccc(O)cc1)C(N)=O)[C@@H](C)O)C(C)C (Ac-ASLRHYLNLV-X1)
447 | 16.5 | 10 | CC(=O)N[C@@H](C)C(=O)N[C@@H](CO)C(=O)N[C@@H](CC(C)C)C(=O)N[C@@H](CCCNC(=N)N)C(=O)N[C@@H](Cc1cnc[nH]1)C(=O)N[C@H](C(=O)N[C@@H](CC(C)C)C(=O)N[C@@H](CC(N)=O)C(=O)N[C@@H](CC(C)C)C(=O)N[C@H](C(=O)N[C@H](C(=O)N[C@@H](CCCNC(=N)N)C(=O)N[C@@H](CCC(N)=O)C(=O)N[C@@H](CCCNC(=N)N)C(=O)N[C@@H](Cc1ccc(O)cc1)C(N)=O)[C@@H](C)O)C(C)C)C(c1ccccc1)c1ccccc1 (Ac-ASLRH[Dip]LNLVTRQRY-NH2)
88.3 | 6.6 | 7.08 | CC(=O)N[C@@H](C)C(=O)N[C@@H](CO)C(=O)N[C@@H](CC(C)C)C(=O)N[C@@H](CCCN=C(N)N)C(=O)N[C@@H](Cc1c[nH]cn1)C(=O)N[C@@H](Cc1cccc2ccccc12)C(=O)N[C@@H](CC(C)C)C(=O)N[C@@H](CC(N)=O)C(=O)N[C@@H](CC(C)C)C(=O)N[C@H](C(=O)N[C@H](C(=O)N[C@@H](CCCN=C(N)N)C(=O)N[C@@H](CCC(N)=O)C(=O)N[C@@H](CCCN=C(N)N)C(=O)N[C@@H](Cc1ccc(O)cc1)C(N)=O)[C@@H](C)O)C(C)C (Ac-ASLRH[1Nal]LNLVTRQRY-NH2)
275 | – | 5.61 | Ac-FSLRHFLNLVTRQRY-NH2
674 | 5.3 | 3.84 | Ac-ASLRAFLNLVTRQRY-NH2
764 | 2.3 | 1.83 | Ac-ASLRHFLNLVTRQRY-NH2
1510 | 0.28 | 1.39 | CC(=O)N[C@@H](C)C(=O)N[C@@H](CO)C(=O)N[C@@H](CC(C)C)C(=O)N[C@@H](CCCNC(=N)N)C(=O)N[C@@H](Cc1cnc[nH]1)C(=O)N[C@@H](Cc1ccc(O)cc1)C(=O)N[C@@H](CC(C)C)C(=O)N[C@@H](CC(N)=O)C(=O)N[C@@H](Cc1c[nH]c2ccccc12)C(=O)N[C@H](C(=O)N[C@H](C(=O)N[C@@H](CCCNC(=N)N)C(=O)N[C@@H](CCC(N)=O)C(=O)N[C@@H](CCCNC(=N)N)CN[C@@H](Cc1ccc(O)cc1)C(N)=O)[C@@H](C)O)C(C)C
> 1000 | 0.91 | 1.3 | CC(=O)N[C@@H](C)C(=O)N[C@@H](CO)C(=O)N[C@@H](CC(C)C)C(=O)N[C@@H](CCCNC(=N)N)C(=O)N[C@@H](Cc1cnc[nH]1)C(=O)N[C@@H](Cc1ccc(O)cc1)C(=O)N[C@@H](CC(C)C)C(=O)N[C@@H](CC(N)=O)C(=O)N[C@@H](CC(C)C)C(=O)N[C@H](C(=O)N[C@H](C(=O)N[C@@H](CCCNC(=N)N)C(=O)N[C@@H](CCC(N)=O)C(=O)N[C@@H](CCCNC(=N)N)C(=O)N[C@@H](Cc1ccc(O)cc1)C(N)=O)[C@@H](C)O)C(C)C
> 10000 | 14.1 | 1.16 | Ac-ASLRHFLNLVTRQRF-NH2
> 1000 | 1.12 | 1.05 | CC(=O)N[C@@H](C)C(=O)N[C@@H](CO)C(=O)N[C@@H](CC(C)C)C(=O)N[C@@H](CCCNC(=N)N)C(=O)N[C@@H](Cc1cnc[nH]1)C(=O)N[C@@H](Cc1c[nH]c2ccccc12)C(=O)N[C@@H](CC(C)C)C(=O)N[C@@H](CC(N)=O)C(=O)N[C@@H](CC(C)C)C(=O)N[C@H](C(=O)N[C@H](C(=O)N[C@@H](CCCNC(=N)N)C(=O)N[C@@H](CCC(N)=O)C(=O)N[C@@H](CCCNC(=N)N)CN[C@@H](Cc1ccc(O)cc1)C(N)=O)[C@@H](C)O)C(C)C (Ac-ASLRHWLNLVTRQ-{Argψ(CH2NH)TyrNH2})
